Laboratory results reported in patent publication US20250236608A1, “EGFR INHIBITORS” (Blueprint Medicines Corporation, priority 2022, published 2025).

What was measured:
EGFR L858R = EGFR L858R (Homo sapiens (Human), UniProt P00533, L858R); experiment: Biochemical EGFR inhibition assay, EGFR L858R; conditions: Caliper mobility shift; 1.0 mM ATP or ATP Km; read-out: Enz EGFR_L858R IC50
EGFR (d746-750) = EGFR (d746-750) (Homo sapiens (Human), UniProt P00533, DEL746-750); experiment: Biochemical EGFR inhibition assay, EGFR (d746-750); conditions: Caliper mobility shift; 1.0 mM ATP or ATP Km; read-out: Enz EGFR_Exon19-del746-750 IC50
[1] = biological target: pEGFR (Tyr1068) in PC-9 cells (Ex19Del) (Homo sapiens (Human), UniProt P00533, DEL746-750); experiment: PC-9 pEGFR AlphaLISA assay; format: cell-based; conditions: 4 hours incubation, p-EGFR (Tyr1068) AlphaLISA, read-out: Ext pEGFR_PC-9 Ex19Del IC50
Outline: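 Cells seeded in phenol-free DMEM with 10% FBS adhered overnight at 37° C./5% CO2, then were exposed for 4 hours to a 4-fold, 10-point compound dilution series. After lysis, phospho-EGFR was read by AlphaLISA SureFire Ultra, and IC50 was fitted from percent inhibition versus log concentration.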

Chain of pEGFR (Tyr1068) in PC-9 cells (Ex19Del) (P00533 other isoform, or with tags, fused parts or gaps del 746-750): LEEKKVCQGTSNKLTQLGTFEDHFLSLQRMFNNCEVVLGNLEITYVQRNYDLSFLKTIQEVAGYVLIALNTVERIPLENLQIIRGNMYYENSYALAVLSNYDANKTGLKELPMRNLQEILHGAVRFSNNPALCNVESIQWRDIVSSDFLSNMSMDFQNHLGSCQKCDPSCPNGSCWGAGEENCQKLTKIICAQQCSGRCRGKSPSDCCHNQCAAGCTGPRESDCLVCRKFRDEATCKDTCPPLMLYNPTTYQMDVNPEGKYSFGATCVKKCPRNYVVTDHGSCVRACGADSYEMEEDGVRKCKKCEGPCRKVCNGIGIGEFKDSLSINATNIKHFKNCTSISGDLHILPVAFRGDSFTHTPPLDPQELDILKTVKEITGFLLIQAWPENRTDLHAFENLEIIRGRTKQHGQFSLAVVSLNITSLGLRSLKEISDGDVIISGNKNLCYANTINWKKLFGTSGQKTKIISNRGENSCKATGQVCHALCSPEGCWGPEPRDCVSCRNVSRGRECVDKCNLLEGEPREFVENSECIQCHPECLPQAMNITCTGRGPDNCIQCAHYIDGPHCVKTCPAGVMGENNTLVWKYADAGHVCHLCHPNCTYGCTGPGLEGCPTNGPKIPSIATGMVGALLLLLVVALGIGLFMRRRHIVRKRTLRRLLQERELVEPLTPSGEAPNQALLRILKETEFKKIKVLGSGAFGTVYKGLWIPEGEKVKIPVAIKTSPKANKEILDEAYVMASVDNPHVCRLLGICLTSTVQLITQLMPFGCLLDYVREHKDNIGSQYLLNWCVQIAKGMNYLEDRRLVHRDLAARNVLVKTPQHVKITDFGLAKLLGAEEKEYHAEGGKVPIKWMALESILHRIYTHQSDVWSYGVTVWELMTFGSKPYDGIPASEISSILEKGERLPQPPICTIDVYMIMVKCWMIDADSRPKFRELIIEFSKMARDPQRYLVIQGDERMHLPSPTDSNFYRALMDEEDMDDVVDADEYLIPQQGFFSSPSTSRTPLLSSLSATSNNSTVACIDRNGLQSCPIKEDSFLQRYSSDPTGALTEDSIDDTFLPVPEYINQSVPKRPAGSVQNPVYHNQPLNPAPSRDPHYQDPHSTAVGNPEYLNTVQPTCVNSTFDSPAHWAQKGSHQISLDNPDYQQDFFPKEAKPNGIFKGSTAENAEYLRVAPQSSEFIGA
Chain of EGFR L858R (P00533 25-1210 L858R): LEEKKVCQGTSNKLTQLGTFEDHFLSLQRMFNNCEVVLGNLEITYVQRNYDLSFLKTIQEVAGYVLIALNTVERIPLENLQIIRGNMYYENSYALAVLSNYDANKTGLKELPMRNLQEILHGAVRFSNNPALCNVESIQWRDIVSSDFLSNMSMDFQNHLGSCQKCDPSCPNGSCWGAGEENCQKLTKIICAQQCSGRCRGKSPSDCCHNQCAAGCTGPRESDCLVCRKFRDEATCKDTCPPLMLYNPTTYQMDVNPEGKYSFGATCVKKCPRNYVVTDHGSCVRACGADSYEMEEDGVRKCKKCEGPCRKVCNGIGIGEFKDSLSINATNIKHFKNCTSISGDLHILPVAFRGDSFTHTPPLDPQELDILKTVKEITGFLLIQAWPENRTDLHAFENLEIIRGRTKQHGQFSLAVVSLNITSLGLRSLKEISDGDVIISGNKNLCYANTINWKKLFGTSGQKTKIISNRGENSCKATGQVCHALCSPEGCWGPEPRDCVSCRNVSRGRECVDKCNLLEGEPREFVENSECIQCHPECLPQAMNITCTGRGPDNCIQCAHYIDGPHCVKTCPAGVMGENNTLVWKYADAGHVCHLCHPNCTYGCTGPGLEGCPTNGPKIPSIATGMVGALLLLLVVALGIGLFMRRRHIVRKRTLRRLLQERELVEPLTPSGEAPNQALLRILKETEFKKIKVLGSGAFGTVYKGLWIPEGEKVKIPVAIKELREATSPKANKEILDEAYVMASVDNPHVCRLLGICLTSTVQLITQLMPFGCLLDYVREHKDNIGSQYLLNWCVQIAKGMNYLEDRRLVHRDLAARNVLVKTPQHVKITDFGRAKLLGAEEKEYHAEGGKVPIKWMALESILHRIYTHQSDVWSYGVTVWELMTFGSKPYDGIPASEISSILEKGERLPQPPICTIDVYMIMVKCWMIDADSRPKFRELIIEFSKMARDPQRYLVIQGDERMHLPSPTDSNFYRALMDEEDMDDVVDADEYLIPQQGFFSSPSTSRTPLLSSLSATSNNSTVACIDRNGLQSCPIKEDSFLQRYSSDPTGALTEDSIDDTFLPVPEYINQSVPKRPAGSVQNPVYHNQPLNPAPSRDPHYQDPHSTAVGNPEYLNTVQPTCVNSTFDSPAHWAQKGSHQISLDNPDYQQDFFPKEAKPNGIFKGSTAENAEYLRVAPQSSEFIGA
Chain of EGFR (d746-750) (P00533 other isoform, or with tags, fused parts or gaps del 1-694/del 746-750 limits assumed): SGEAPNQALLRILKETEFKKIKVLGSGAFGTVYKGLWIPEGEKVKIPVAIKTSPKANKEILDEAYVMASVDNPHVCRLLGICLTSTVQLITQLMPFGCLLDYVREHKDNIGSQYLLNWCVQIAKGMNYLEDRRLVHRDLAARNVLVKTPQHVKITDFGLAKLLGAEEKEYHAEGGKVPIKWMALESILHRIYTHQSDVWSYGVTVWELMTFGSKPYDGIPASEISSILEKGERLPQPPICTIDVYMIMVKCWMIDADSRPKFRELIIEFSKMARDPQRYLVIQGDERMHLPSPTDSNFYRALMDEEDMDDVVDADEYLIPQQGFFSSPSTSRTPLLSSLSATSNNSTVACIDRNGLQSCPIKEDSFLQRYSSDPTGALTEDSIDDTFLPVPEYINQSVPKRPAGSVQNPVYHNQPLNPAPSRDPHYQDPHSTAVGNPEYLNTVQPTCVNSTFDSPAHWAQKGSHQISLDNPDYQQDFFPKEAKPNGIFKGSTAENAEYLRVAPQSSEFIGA

SMILES | IC50 (EGFR L858R) [nM] | IC50 (EGFR (d746-750)) [nM] | IC50 [1] [nM]
COc1cc2ncnc(-c3cn(CC(F)(F)F)nc3-c3ccccc3)c2cc1OC(=O)N1CCN(C)C[C@@H]1C [Example 60, 7-methoxy-4-(3-phenyl-1-(2,2,2-trifluoroethyl)-1H-pyrazol-4-yl)quinazolin-6-yl(S)-2,4-dimethylpiperazine-1-carboxylate] | 5.1 | 3.6 | 3.6
COc1cc2ncnc(-c3cn(CCO)nc3-c3ccccc3)c2nc1NC(=O)C12CC(C1)C2 [Example 414, N-(4-(1-(2-hydroxyethyl)-3-phenyl-1H-pyrazol-4-yl)-7-methoxypyrido[3,2-d]pyrimidin-6-yl)bicyclo[1.1.1]pentane-1-carboxamide] | 2.1 | 1.3 | 1.2
COc1cc2ncnc(-c3c[nH]nc3-c3ccc(F)cc3)c2nc1NC(=O)[C@]12COC[C@H]1C2 [Example 467, (1S,5S)—N-{4-[3-(4-fluorophenyl)-1H-pyrazol-4-yl]-7-methoxypyrido[3,2-d]pyrimidin-6-yl}-3-oxabicyclo[3.1.0]hexane-1-carboxamide] | 5.5 | 1.3 | 5.3
COc1cc2ncnc(-c3cn(C)nc3-c3ccccc3)c2nc1NC(=O)[C@@]1(C(F)(F)F)CCN(C)C1 (single isomer, unassigned) [Example 394, (R)—N-(7-methoxy-4-(1-methyl-3-phenyl-1H-pyrazol-4-yl)pyrido[3,2-d]pyrimidin-6-yl)-1-methyl-3-(trifluoromethyl) pyrrolidine-3-carboxamide or (S)—N-(7-methoxy-4-(1-methyl-3-phenyl-1H-pyrazol-4-yl)pyrido[3,2-d]pyrimidin-6-yl)-1-methyl-3-(trifluoromethyl) pyrrolidine-3-carboxamide] | 6.9 | 2.7 | 9.3
CN1C[C@H]2C[C@@]2(C(=O)Nc2nc3c(-c4cn(C)nc4-c4ccccc4)ncnc3cc2OC2CC2)C1 [Example 460, (1S,5S)—N-[7-cyclopropoxy-4-(1-methyl-3-phenyl-1H-pyrazol-4-yl)pyrido[3,2-d]pyrimidin-6-yl]-3-methyl-3-azabicyclo[3.1.0]hexane-1-carboxamide] | 5.7 | 1.5 | 3.2
COc1cc2ncnc(-c3cn(C)nc3-c3ccccc3)c2cc1OC(=O)N1CCN2CCCC2C1 (stereo in doubt) [Example 84, 7-methoxy-4-(1-methyl-3-phenyl-1H-pyrazol-4-yl)quinazolin-6-yl (S)-hexahydropyrrolo[1,2-a]pyrazine-2(1H)-carboxylate] | 4.9 | 3.3 | 6.5
COc1cc2ncnc(-c3cn(C)nc3-c3ccccc3)c2nc1NC(=O)[C@@]12C[C@@H]1CN(C)C2 (single isomer, unassigned) [Example 392, (1S,5S)—N-(7-methoxy-4-(1-methyl-3-phenyl-1H-pyrazol-4-yl)pyrido[3,2-d]pyrimidin-6-yl)-3-methyl-3-azabicyclo[3.1.0]hexane-1-carboxamide or (1R,5R)—N-(7-methoxy-4-(1-methyl-3-phenyl-1H-pyrazol-4-yl)pyrido[3,2-d]pyrimidin-6-yl)-3-methyl-3-azabicyclo[3.1.0]hexane-1-carboxamide] | 6.1 | 2.2 | 5.9
COc1cc2ncnc(-c3cn(C)nc3-c3ccccc3)c2nc1NC(=O)[C@]12C[C@H]1CN(C)C2 (single isomer, unassigned) [Example 393, (1R,5R)—N-(7-methoxy-4-(1-methyl-3-phenyl-1H-pyrazol-4-yl)pyrido[3,2-d]pyrimidin-6-yl)-3-methyl-3-azabicyclo[3.1.0]hexane-1-carboxamide or (1S,5S)—N-(7-methoxy-4-(1-methyl-3-phenyl-1H-pyrazol-4-yl)pyrido[3,2-d]pyrimidin-6-yl)-3-methyl-3-azabicyclo[3.1.0]hexane-1-carboxamide] | 2.1 | 0.9 | 3.5
[2H]C([2H])([2H])n1cc(-c2ncnc3cc(OC)c(NC(=O)C45CC(N(C)C)(C4)C5)nc23)c(-c2ccccc2)n1 [Example 494] | 4.4 | 1.2 | 3.6

These reach a lower IC50 (EGFR L858R). Values come first.

IC50 (EGFR L858R) [nM] | IC50 (EGFR (d746-750)) [nM] | IC50 [1] [nM] | SMILES
1.4 | 1 | 1.1 | COc1cc2ncnc(-c3cn(C)nc3-c3ccccc3)c2nc1OC(C)c1cccnc1F (stereo not drawn) [Example 30, 6-(1-(2-fluoropyridin-3-yl)ethoxy)-7-methoxy-4-(1-methyl-3-phenyl-1H-pyrazol-4-yl)pyrido[3,2-d]pyrimidine]
2 | 1 | 1.9 | COc1cc2ncnc(-c3cn(C)nc3-c3ccccc3)c2nc1-c1ccc2c(c1)CNC2=O [Example 152, 5-(7-methoxy-4-(1-methyl-3-phenyl-1H-pyrazol-4-yl)pyrido[3,2-d]pyrimidin-6-yl) isoindolin-1-one]
1.7 | 0.9 | 1.2 | COc1cc2ncnc(-c3cn(C)nc3-c3ccccc3)c2cc1NC(=O)c1cn(C(C)C)nc1C [Example 217, 1-isopropyl-N-(7-methoxy-4-(1-methyl-3-phenyl-1H-pyrazol-4-yl)quinazolin-6-yl)-3-methyl-1H-pyrazole-4-carboxamide]
2 | 1.2 | 4.1 | COc1cc2ncnc(-c3cn(CC(F)F)nc3-c3ccccc3)c2cc1[C@@H](C)O (single isomer, unassigned) [Example 102, (R)-1-(4-(1-(2,2-difluoroethyl)-3-phenyl-1H-pyrazol-4-yl)-7-methoxyquinazolin-6-yl)ethan-1-ol or (S)-1-(4-(1-(2,2-difluoroethyl)-3-phenyl-1H-pyrazol-4-yl)-7-methoxyquinazolin-6-yl)ethan-1-ol]
1.3 | 0.8 | 1.1 | COc1cc2ncnc(-c3cn(C)nc3-c3ccccc3)c2cc1NC(=O)c1ccccc1F [Example 198, 2-fluoro-N-(7-methoxy-4-(1-methyl-3-phenyl-1H-pyrazol-4-yl)quinazolin-6-yl)benzamide]
1.6 | 0.7 | 1.6 | COc1cc2ncnc(-c3cn(C)nc3-c3ccccc3)c2nc1NC(=O)c1ccccc1F [Example 359, 2-fluoro-N-(7-methoxy-4-(1-methyl-3-phenyl-1H-pyrazol-4-yl)pyrido[3,2-d]pyrimidin-6-yl)benzamide]
1.3 | 0.9 | 2.7 | CCOc1cc2ncnc(-c3cn(CC)nc3-c3ccccc3)c2cc1[C@@H](C)O (single isomer, unassigned) [Example 108, (R)-1-(7-ethoxy-4-(1-ethyl-3-phenyl-1H-pyrazol-4-yl)quinazolin-6-yl)ethan-1-ol or (S)-1-(7-ethoxy-4-(1-ethyl-3-phenyl-1H-pyrazol-4-yl)quinazolin-6-yl)ethan-1-ol]
1.2 | 0.9 | 0.7 | COc1cc2ncnc(-c3cn(C)nc3-c3ccccc3)c2nc1OC(C)c1cocn1 (stereo not drawn) [Example 28, 4-(1-((7-methoxy-4-(1-methyl-3-phenyl-1H-pyrazol-4-yl)pyrido[3,2-d]pyrimidin-6-yl)oxy)ethyl)oxazole]
0.9 | 0.5 | 0.9 | CCOc1cc2ncnc(-c3cn(C)nc3-c3ccccc3)c2cc1NC(=O)c1ccc(C2CC2)nc1 [Example 297, 6-cyclopropyl-N-(7-ethoxy-4-(1-methyl-3-phenyl-1H-pyrazol-4-yl)quinazolin-6-yl)nicotinamide]
